Patent US9718790B2, “Triazine derivative and pharmaceutical composition having an analgesic activity comprising the same” (SHIONOGI & CO., LTD., priority 2010, dated 2017)

What was measured:
CYP3A4 = CYP3A4 (Homo sapiens (Human), UniProt P08684); test: CYP3A4 fluorescent MBI test; assay type: in vitro ADME; conditions: substrate 7-BFC, pre-reaction time 0 or 30 minutes
Description: The CYP3A4 fluorescent MBI test is a test of investigating enhancement or CYP3A4 inhibition of a compound by a metabolism reaction, and the test was performed using, as CYP3A4 enzyme expressed in Escherichia coli and employlng, as an index, a reaction in which 7-benzyloxytrifluoromethylchmarin (BFC) is debenzylated by the CYP3A4 enzyme to produce a metabolite, 7-hydroxytrifluoromethylchmarin (HFC) emitting fluorescent light.
The reaction conditions were as follows: substrate, 5.6 μmol/L 7-BFC; pre-reaction time, 0 or 30 minutes; reaction time, 15 minutes; reaction temperature, 25° C.
An enzyme in a K-Pi buffer (pH 7.4) and a test drug solution as a pre-reaction. solution were added to a 96-well plate at the composition of the pre-reaction, a part of it was transferred to another 96-well plate so that it was 1/10 diluted by a substrate in a K-Pi buffer, NADPH as a co-factor was added to initiate a reaction as an index (without preincubation) and, after a predetermined time of a reaction, acetonitrile:0.5 mol/L Tris (trishydroxyaminomethane)=4:1 was added to stop the reaction. […] For the plate on which each index reaction had been performed, a fluorescent value of 7-HFC which is a metabolite was measured with a fluorescent plate reader. […]

[1] = system: partial sciatic nerve ligation model in rats; test: Analgesic effect in a Seltzer model, Evaluation (1): mechanical allodynia, von Frey filaments; assay type: in vivo; conditions: rat, oral single administration, at 3 hours, read-out: analgesic effect, percent reversal of mechanical allodynia
Text: Rats were anaesthetized using isoflurane/O2 inhalation anaesthesia. After induction of anesthesia, the left thigh was shaved. An incision was made in the skin just below the hip bone. The muscle was bluntly dissected to expose the sciatic nerve. One third (⅓) to one half (½) of the sciatic nerve thickness was tightly ligated and the wound was closed. The right thigh is used as a sham-operated control. The right thigh undergoes an identical procedure with the left hind limb, however, the sciatic nerve is not manipulated or ligated.
Two weeks after nerve ligation, the effect on mechanical allodynia was assessed using a series of von Frey filaments. For habituation, the rats were placed into a plastic cage on a wire mesh bottom. The mechanical sensitivity (mechanical threshold) of the hind paws was estimated with a series of von Frey filaments (0.4-20 g). The measurement of mechanical sensitivity of the right and left hind paws was performed to obtain predose mechanical sensitivity. The rats showing thee threshold change from 0.6 to 2 g (in nerve ligated side) and 8 to 15 g (in sham operated side) were used in the experiments. On the day belone the experiment, the rats were evaluated with a series of von Frey filaments to familiarize them with the test procedure. The adopted animal was administrated with the test compounds. The test compounds were homogenized with mortar and pestle and suspended or diluted in 0.5% Methyl Cellulose to prepare 0.1-2.0 mg/mL/kg suspension and orally administered to rat using a syringe attached with a sonde. Post-dose mechanical sensitivities of the right and left hind paws were measured at approximately 1 to 5 hours after drug administration. Percent reversal of mechanical allodynia for each rat was calculated using the following formula. The analgesic effects of the compounds were compared.

Sequence of CYP3A4 (P08684 whole entry): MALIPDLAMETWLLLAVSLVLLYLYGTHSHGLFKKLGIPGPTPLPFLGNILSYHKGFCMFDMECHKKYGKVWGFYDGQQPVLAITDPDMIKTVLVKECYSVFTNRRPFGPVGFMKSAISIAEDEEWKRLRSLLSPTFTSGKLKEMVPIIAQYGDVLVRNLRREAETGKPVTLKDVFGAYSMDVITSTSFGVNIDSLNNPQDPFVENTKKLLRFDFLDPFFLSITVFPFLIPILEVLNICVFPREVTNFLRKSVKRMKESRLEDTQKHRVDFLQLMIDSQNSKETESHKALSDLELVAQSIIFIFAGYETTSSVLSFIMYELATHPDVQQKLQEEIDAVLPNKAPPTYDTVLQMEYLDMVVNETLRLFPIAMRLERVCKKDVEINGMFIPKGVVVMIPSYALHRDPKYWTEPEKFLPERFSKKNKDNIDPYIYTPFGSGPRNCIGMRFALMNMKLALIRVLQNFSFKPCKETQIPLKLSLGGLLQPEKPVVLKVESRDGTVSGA

| SMILES | IC50 (CYP3A4) [µM] | inhibition in vivo at 3 mg/kg [1] [%] |
| --- | --- | --- |
| C[C@@H](Cn1c(=O)[nH]/c(=N\c2ccc(OCC3CC3)cc2)n(Cc2ccc(Cl)cc2)c1=O)C(=O)O [Compound I-0837] | ≤ 3 |  |
| O=c1[nH]/c(=N\c2ccc(Oc3ccon3)cc2)n(Cc2ccc(Cl)cc2)c(=O)n1CC(CO)CO [Compound I-2291] |  | > 30 |
